Patent US6939563B2, “Non-fermented osmotic laxative and method for treating and preventing colorectal cancers” (Inra-Institut National de la Recherche Agronomique, priority 1998, dated 2005)
Like-named read-outs stand apart in the source and are kept apart here.

Columns and labels:
[1] = system: colon carcinogenesis in rats; settings: AOM, then 4 wks, then agent 4 wks, cited from earlier work; for ACF/rat: Aspirin 0.2 g/kg (control 175), Piroxicam 0.2 (control 125), 13 cis Retinoic (control 140); for Large ACF: controls 55 (aspirin), 40 (piroxicam), 57 (retinoic)
[2] = system: colon carcinogenesis in rats; assay: Wargovich et al. Int. J. Cancer 1995 (Ref 12): AOM, then 4 wks, then agent 4 wks; assay type: in vivo, rat; settings: Ref 12 (Piroxicam line prints Ref 8); from published data
Text: (§1) Each value is the ratio between the value in the controls given a carcinogenic substance and the value found in animals treated with a preventive agent before or after the carcinogenic substance. The higher the value the greater the effectiveness of the agent.
(§2) The results given in Table 4 were established on the basis of published data indicated in references 2 to 12 in Table 5 below.

[3] = system: colon carcinogenesis in rats; assay: Tanaka et al. Carcinogenesis 1997 (Ref 11): ACF induced by 3 x AOM 15 mg/kg; assay type: in vivo, rat; settings: from published data; for n° ACF/rat, ratio controls/treated: Hesperidin 1000 ppp, Auraptene 500 ppm
Text: as §1, §2

[4] = system: colon carcinogenesis in rats; settings: 3 x AOM 15 mg/kg, cited from earlier work; for ACF/rat: Hesperidin 1000 ppm (control 89 ± 17), Acetoxychavicol acet 100 ppm (control 118 ± 28), Auraptene (control 157 ± 21); for Crypt/ACF: controls 2.77 (Hesperidin), 2.54 (Acetoxychavicol acet), 2.91 (Auraptene)
[5] = system: colon carcinogenesis in rats; assay: Takahashi et al. Carcinogenesis 1997 (Ref 10): ACF induced by 20x AOM, DHA with each dose; assay type: in vivo, rat; settings: from published data
Text: as §1, §2

[6] = system: colon carcinogenesis in rats; settings: 20x AOM, 1 ml DHA with each dose, 12w, cited from earlier work
[7] = system: colon carcinogenesis in rats; assay: Takahashi et al. Carcinogenesis 1997 (Ref 9): ACF induced by 10x PhIP, DHA before each dose; assay type: in vivo, rat; settings: from published data
Text: as §1, §2

[8] = system: colon carcinogenesis in rats; settings: ACF induced by 10x PhIP, DHA 4 h before each dose, cited from earlier work
[9] = system: colon carcinogenesis in rats; assay: Pereira-Khoury Cancer Lett. 1991 (Ref 4): agent wk-1 to +4, 2x15 mg AOM; assay type: in vivo, rat; settings: from published data
Text: as §1, §2

[10] = system: colon carcinogenesis in rats; settings: agent wk-1 to +4, 2x15 mg AOM at wk 0, cited from earlier work; for Crypt/ACF: control 2.59 ± 0.14; for ACF/rat: control 228 ± 32
[11] = system: colon carcinogenesis in rats; settings: agent day 1-35, AOM on d. 7 & 14, cited from earlier work; for Crypt/ACF: control 2.04 ± 0.04; for ACF/rat: control 26 ± 2.2
[12] = system: colon carcinogenesis in rats; assay: Pereira et al. Carcinogenesis 1994 (Ref 5): agent day 1-35, AOM d. 7 & 14; assay type: in vivo, rat; settings: from published data
Text: as §1, §2

[13] = system: colon carcinogenesis in rats; assay: Salim et al. Jpn J Cancer Res 88 (Ref 8): Vit. D3 post DMH 16 wks; assay type: in vivo, rat; settings: from published data
Text: as §1, §2

[14] = system: colon carcinogenesis in rats; settings: Vit. D3 10 ppm post DMH for 16 wks, cited from earlier work
[15] = system: colon carcinogenesis in rats; settings: Inulin 10% for 10 wks, AOM at wk 3 & 4, cited from earlier work
[16] = system: colon carcinogenesis in rats; assay: Reddy et al. Carcinogenesis 1997 (Ref 6): inulin 10 wks, AOM wk 3 & 4; assay type: in vivo, rat; settings: from published data
Text: as §1, §2

CC1=C(/C=C/C(C)=C/C=C/C(C)=C\C(=O)O)C(C)(C)CCC1 [13 cis retinoic]
ACF/rat [1]: 70 | Large ACF [1]: 30 | Large ACF, ratio controls/treated [2]: 1.9 | n° ACF/rat, ratio controls/treated [2]: 2.0

C=C[C@H](OC(C)=O)c1ccc(OC(C)=O)cc1 [Acetoxychavicol acet.]
n° ACF/rat, ratio controls/treated [3]: 1.7 | Crypts/ACF, ratio controls/treated [3]: 1.13 | Large ACF, ratio controls/treated [3]: 2.1 | Large ACF ([4]; Acetoxychavicol acet 100 ppm, control 60): 28 | ACF/rat [4]: 70 ± 10 | Crypt/ACF [4]: 2.24

CC(=O)Oc1ccccc1C(=O)O [Aspirin]
ACF/rat [1]: 100 | Large ACF [1]: 20 | Large ACF, ratio controls/treated [2]: 2.7 | n° ACF/rat, ratio controls/treated [2]: 1.7

CC(C)=CCC/C(C)=C/COc1ccc2ccc(=O)oc2c1 [Auraptene]
n° ACF/rat, ratio controls/treated [3]: 2.3 | Crypts/ACF, ratio controls/treated [3]: 1.33

CC/C=C\C/C=C\C/C=C\C/C=C\C/C=C\C/C=C\CCC(=O)O [DHA]
Crypts/ACF, ratio controls/treated [5]: 1.08 | Large ACF, ratio controls/treated [5]: 2.0 | n° ACF/rat, ratio controls/treated [5]: 1.6 | Crypt/ACF ([6]; control 3.2): 2.95 | Large ACF ([6]; control 114): 56 | ACF/rat ([6]; control 308 ± 64): 191 ± 40 | Crypts/ACF, ratio controls/treated [7]: 1.13 | n° ACF/rat, ratio controls/treated [7]: 2.8 | Crypts/ACF ([8]; control 2.69): 2.39 | ACF/rat ([8]; control 22): 8

C[C@]12CC[C@H](O)CC1=CC[C@@H]1[C@@H]2CC[C@]2(C)C(=O)CC[C@@H]12 [Dehydroepiandrosterone]
Crypts/ACF, ratio controls/treated [9]: 1.06 | n° ACF/rat, ratio controls/treated [9]: 1.9 | Crypt/ACF [10]: 2.44 ± 0.07 | ACF/rat [10]: 121 ± 19

COc1ccc([C@@H]2CC(=O)c3c(O)cc(O[C@@H]4O[C@H](CO[C@@H]5O[C@@H](C)[C@H](O)[C@@H](O)[C@H]5O)[C@@H](O)[C@H](O)[C@H]4O)cc3O2)cc1O [Hesperidin]
n° ACF/rat, ratio controls/treated [3]: 2.6 | Crypts/ACF, ratio controls/treated [3]: 1.25 | ACF/rat [4]: 34 ± 5 | Crypt/ACF [4]: 2.22

CC(=O)N[C@@H](CS)C(=O)O [N-acetylcysteine]
Crypts/ACF, ratio controls/treated [9]: 1.10 | n° ACF/rat, ratio controls/treated [9]: 1.5 | Crypt/ACF [10]: 2.35 ± 0.07 | ACF/rat [10]: 151 ± 21

CN1C(C(=O)Nc2ccccn2)=C(O)c2ccccc2S1(=O)=O [Piroxicam]
ACF/rat [1]: 45 | Large ACF [1]: 5 | Crypt/ACF [11]: 1.84 ± 0.1 | ACF/rat [11]: 16 ± 2.8 | Large ACF, ratio controls/treated [2]: 8 | n° ACF/rat, ratio controls/treated [2]: 2.8 | Crypts/ACF, ratio controls/treated [12]: 1.10 | n° ACF/rat, ratio controls/treated [12]: 1.6

CC1=C(CC(=O)O)c2cc(F)ccc2/C1=C\c1ccc([S+](C)[O-])cc1 (centres unmarked) [Sulindac]
Crypt/ACF [11]: 1.82 ± 0.14 | ACF/rat [11]: 15 ± 3.2 | Crypts/ACF, ratio controls/treated [12]: 1.10 | n° ACF/rat, ratio controls/treated [12]: 1.7

C=C1CC[C@H](O)C/C1=C/C=C1\CCC[C@]2(C)[C@@H]([C@H](C)CCCC(C)C)CC[C@@H]12 [Vit. D3]
Large ACF, ratio controls/treated [13]: 1.8 | n° ACF/rat, ratio controls/treated [13]: 1.3 | Large ACF ([14]; control 120): 66 | ACF/rat ([14]; control 352): 269

Inulin
Large ACF ([15]; control 56): 39 | ACF/rat ([15]; control 120): 78 | Large ACF, ratio controls/treated [16]: 1.4 | n° ACF/rat, ratio controls/treated [16]: 1.5

Oxothiazolidine
Crypts/ACF, ratio controls/treated [9]: 1.09 | n° ACF/rat, ratio controls/treated [9]: 1.9 | Crypt/ACF [10]: 2.38 ± 0.08 | ACF/rat [10]: 121 ± 11
